What was measured:
Assay type in all cases: biochemical
LRRK2 = LRRK2 (Homo sapiens, UniProt Q5S007); experiment: LRRK2 enzyme inhibition, ADP-Glo kinase assay; set-up: purchased Invitrogen PR8604B
Procedure: In order to evaluate the inhibitory activity of the compounds according to the present invention on LRRK2, LRRK2 (G2019S), DYRK1, CLK1 and TTK kinases, the following experiment was performed.
Example compounds were reacted with the purified human LRRK2 (Invitrogen #PR8604B) enzyme to evaluate the enzyme inhibitory ability as follows. The reaction buffer was used as the composition of 40 mM Tris-HCl pH7.4, 20 mM MgCl2, 0.5 mg/ml BSA and 50 μM DTT, and the reaction of all test materials was performed on the reaction buffer. The compound was diluted with 10 mM DMSO stock in 12 steps by a serial dilution method, and the enzyme activity was measured at the final compound concentrations of 50, 10, 2, 0.4, 0.08, 0.016, 0.0032, 0.00064, 0.000128, 0.0000256, 0.00000512 and 0.000001024 μM. In the test, the human LRRK2 (25 ng) enzyme was reacted with the purified ATP (10 μM) and an enzyme substrate ([…]) at 25° C. for 2 hours, and then the enzyme activity was identified using the in vitro ADP-Glo™ kinase assay (promega). The enzyme activity reaction liquid, an ADP-Glo reaction liquid and an enzyme potency detection solution were reacted in a ratio of 2:2:1, and the degree of inhibition of enzyme activity was measured by Luminescence. The degree of inhibition of enzyme activity according to the treatment concentrations of the respective compounds was calculated based on the fluorescence of the enzyme activity of a solvent control group that was not treated with the compound, where the concentration of each compound to inhibit enzyme activity inhibition by 50% was determined as an IC50 (nM) value and obtained using Prism (Version 5.01, GraphPad) software.
In the table below, the following designations were used for the evaluation of enzyme inhibitory ability.

LRRK2 (G2019S) = LRRK2 (G2019S) (Homo sapiens, UniProt Q5S007, G2019S); experiment: LRRK2 G2019S enzyme inhibition, ADP-Glo kinase assay; set-up: purchased SignalChem L10-12GG
LRRK2 (G2019S), sequence (Q5S007 970-2527 G2019S limits assumed): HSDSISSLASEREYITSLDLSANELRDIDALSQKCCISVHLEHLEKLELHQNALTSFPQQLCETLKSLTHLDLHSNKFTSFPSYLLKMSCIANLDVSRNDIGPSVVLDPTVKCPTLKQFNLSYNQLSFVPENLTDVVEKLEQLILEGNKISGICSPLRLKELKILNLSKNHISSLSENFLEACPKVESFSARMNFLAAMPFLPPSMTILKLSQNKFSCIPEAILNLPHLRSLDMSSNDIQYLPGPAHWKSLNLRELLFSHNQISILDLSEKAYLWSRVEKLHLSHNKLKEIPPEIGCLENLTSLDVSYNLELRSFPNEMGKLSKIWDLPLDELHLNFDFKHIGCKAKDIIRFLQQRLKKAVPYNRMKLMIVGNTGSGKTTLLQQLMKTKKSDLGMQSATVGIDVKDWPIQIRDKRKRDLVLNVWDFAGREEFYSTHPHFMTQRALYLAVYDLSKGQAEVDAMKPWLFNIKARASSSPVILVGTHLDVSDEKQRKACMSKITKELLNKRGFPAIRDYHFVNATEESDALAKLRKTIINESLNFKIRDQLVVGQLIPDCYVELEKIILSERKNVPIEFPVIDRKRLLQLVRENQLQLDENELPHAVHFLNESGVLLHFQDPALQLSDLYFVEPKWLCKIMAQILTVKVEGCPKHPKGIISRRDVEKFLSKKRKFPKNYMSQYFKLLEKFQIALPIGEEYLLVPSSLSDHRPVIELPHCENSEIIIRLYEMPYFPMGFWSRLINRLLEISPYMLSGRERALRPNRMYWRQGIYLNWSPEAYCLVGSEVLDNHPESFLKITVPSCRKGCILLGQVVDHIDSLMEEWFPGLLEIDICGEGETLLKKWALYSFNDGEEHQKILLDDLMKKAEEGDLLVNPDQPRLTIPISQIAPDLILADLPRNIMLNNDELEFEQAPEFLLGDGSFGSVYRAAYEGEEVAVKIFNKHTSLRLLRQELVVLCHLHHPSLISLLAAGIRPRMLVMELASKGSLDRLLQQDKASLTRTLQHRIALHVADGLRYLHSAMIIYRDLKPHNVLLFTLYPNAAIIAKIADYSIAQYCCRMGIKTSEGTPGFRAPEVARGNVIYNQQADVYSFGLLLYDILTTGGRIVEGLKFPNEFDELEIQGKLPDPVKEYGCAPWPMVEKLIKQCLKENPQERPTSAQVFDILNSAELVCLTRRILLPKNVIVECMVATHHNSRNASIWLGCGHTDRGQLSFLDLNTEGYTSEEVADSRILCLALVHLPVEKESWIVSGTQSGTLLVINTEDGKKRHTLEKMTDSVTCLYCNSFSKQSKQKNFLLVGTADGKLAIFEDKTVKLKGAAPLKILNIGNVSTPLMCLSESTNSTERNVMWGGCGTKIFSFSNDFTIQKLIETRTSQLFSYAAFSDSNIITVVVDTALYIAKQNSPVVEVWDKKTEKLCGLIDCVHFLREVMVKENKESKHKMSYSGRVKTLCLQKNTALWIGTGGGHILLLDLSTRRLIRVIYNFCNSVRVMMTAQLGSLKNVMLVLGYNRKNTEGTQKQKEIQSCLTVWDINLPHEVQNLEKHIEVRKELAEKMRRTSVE
How it was run: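 Purified human LRRK2 G2019S (16 ng) with 25 μM ATP and 0.2 μg substrate, 2 h at 25° C in 40 mM Tris-HCl pH 7.4, 20 mM MgCl2, 0.5 mg/ml BSA, 50 μM DTT; compound at 12 final concentrations from 50 μM downward. ADP-Glo luminescence versus solvent control gave IC50 (nM).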

[1] = target: T1, human GST-DYRK1A (full length) (Homo sapiens, UniProt Q13627); experiment: GST-DYRK1A enzyme inhibition, ADP-Glo kinase assay; details: read-out: DYRK1 IC50
T1 construct: purified human GST-DYRK1A (full length, Thermo scientifics) enzyme; GST; purchased Thermo scientifics
How it was run: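 Full-length human GST-DYRK1A (10 ng) incubated with 10 uM ATP and specific substrate for 1 h at 25° C in 40 mM Tris-HCl pH 7.4, 20 mM MgCl2, 0.5 mg/mL BSA, 50 uM DTT. ADP formation read by ADP-Glo luminescence; IC50 (nM) versus solvent control, triplicate.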

human GST-CLK1 (129-end) = target: T2, human GST-CLK1 (129-end) (Homo sapiens, UniProt P49759); experiment: GST-CLK1 enzyme inhibition, ADP-Glo kinase assay; details: ATP 10 uM
T2 construct: purified human GST-CLK1 (129-end, Signalchem) enzyme; GST; purchased Signalchem
T2 sequence (P49759 129-484 limits assumed): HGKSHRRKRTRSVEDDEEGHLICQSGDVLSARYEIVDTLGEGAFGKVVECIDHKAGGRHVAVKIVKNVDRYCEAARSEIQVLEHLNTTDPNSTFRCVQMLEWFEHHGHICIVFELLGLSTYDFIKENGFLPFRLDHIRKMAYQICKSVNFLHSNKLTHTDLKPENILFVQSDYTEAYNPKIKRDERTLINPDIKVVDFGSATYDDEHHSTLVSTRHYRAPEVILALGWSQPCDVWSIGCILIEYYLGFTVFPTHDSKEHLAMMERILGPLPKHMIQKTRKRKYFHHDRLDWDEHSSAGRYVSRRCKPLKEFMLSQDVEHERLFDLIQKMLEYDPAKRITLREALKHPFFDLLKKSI
How it was run: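 GST-CLK1 (129-end, 3 ng) reacted with 10 uM ATP and substrate in 40 mM Tris-HCl pH 7.4, 20 mM MgCl2, 0.5 mg/mL BSA, 50 uM DTT, 1 h at 25° C. ADP-Glo luminescence normalised to solvent control; IC50 from triplicate data.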

LRRK2, sequence (Q5S007 970-2527 limits assumed): as the sequence (Q5S007 970-2527 G2019S limits assumed) above, with S1050G counted along it

| Compound | IC50 (LRRK2) [µM] | IC50 (LRRK2 (G2019S)) [µM] | IC50 [1] [µM] | IC50 (human GST-CLK1 (129-end)) [µM] |
| --- | --- | --- | --- | --- |
| COc1cc(S(C)(=O)=O)ccc1Nc1cc(NC2CCC2)c2c(C#N)c[nH]c2n1 [Example 120, 4-(cyclobutylamino)-6-((2-methoxy-4-(methylsulfonyl)phenyl)amino)-1H-pyrrolo[2,3-b]pyridine-3-carbonitrile] | < 0.1 | 0.101 to 0.3 | 0.301 to 1 | 0.301 to 1 |
| N#Cc1c[nH]c2nc(Nc3ccc(C(=O)N4CCC(N5CCOCC5)CC4)c4c3OCCO4)cc(NC3CCC3)c12 [Example 117, 4-(cyclobutylamino)-6-((8-(4-morpholinopiperidine-1-carbonyl)-2,3-dihydrobenzo[b] [1,4]dioxin-5-yl)amino)-1H-pyrrolo[2,3-b]pyridine-3-carbonitrile] | < 0.1 | < 0.1 | 0.301 to 1 | < 0.1 |
| COc1cc(S(C)(=O)=O)ccc1Nc1cc(NCCS(C)(=O)=O)c2c(C#N)c[nH]c2n1 [Example 119, 6-((2-methoxy-4-(methylsulfonyl)phenyl)amino)-4-((2-(methylsulfonyl)ethyl)amino)-1H-pyrrolo[2,3-b]pyridine-3-carbonitrile] | < 0.1 | < 0.1 | 0.301 to 1 | 0.301 to 1 |
| CNc1cc(Nc2ccc(S(=O)(=O)N3CCOCC3)cc2OC)nc2[nH]cc(Cl)c12 [Example 64, 3-chloro-N^6-(2-methoxy-4-(morpholinosulfonyl)phenyl)-N^4-methyl-1H-pyrrolo[2,3-b]pyridine-4,6-diamine] | 0.301 to 1 | 0.301 to 1 | 0.301 to 1 | 0.301 to 1 |
| COc1cc(S(C)(=O)=O)ccc1Nc1cc(NCC(C)C)c2cc[nH]c2n1 [Example 29, N^4-isobutyl-N^6-(2-methoxy-4-(methylsulfonyl)phenyl)-1H-pyrrolo[2,3-b]pyridine-4,6-diamine] | < 0.1 | 0.101 to 0.3 | 0.301 to 1 | 0.301 to 1 |

Now from value to molecule:

| IC50 (LRRK2) [µM] | IC50 (LRRK2 (G2019S)) [µM] | IC50 [1] [µM] | IC50 (human GST-CLK1 (129-end)) [µM] | Compound |
| --- | --- | --- | --- | --- |
| < 0.1 | < 0.1 | 0.101 to 0.3 | < 0.1 | CCNc1cc(Nc2ccc(C(=O)N3CCC(N4CCOCC4)CC3)c3c2OCCO3)nc2[nH]cc(C(F)(F)F)c12 [Example 161, (8-((4-(ethylamino)-3-(trifluoromethyl)-1H-pyrrolo[2,3-b]pyridin-6-yl)amino)-2,3-dihydrobenzo[b] [1,4]dioxin-5-yl)(4-morpholinopiperidin-1-yl)methanone] |
| < 0.1 | < 0.1 | 0.301 to 1 | 0.301 to 1 | COCCNc1cc(Nc2ccc(S(C)(=O)=O)cc2OC)nc2[nH]cc(C#N)c12 [Example 126, 6-((2-methoxy-4-(methylsulfonyl)phenyl)amino)-4-((2-methoxyethyl)amino)-1H-pyrrolo[2,3-b]pyridine-3-carbonitrile] |
| < 0.1 | < 0.1 | 0.101 to 0.3 | < 0.1 | CCNc1cc(Nc2ccc(P(C)(=O)N3CCC(N4CCOCC4)CC3)cc2OC)nc2[nH]cc(C(F)(F)F)c12 (stereo not shown) [Example 208, (4-((4-(ethylamino)-3-(trifluoromethyl)-1H-pyrrolo[2,3-b]pyridin-6-yl)amino)-3-methoxyphenyl) (methyl)(4-morpholinopiperidin-1-yl)phosphine oxide] |
| 0.301 to 1 | 0.301 to 1 | 0.301 to 1 | 0.301 to 1 | CNc1cc(Nc2ccc(S(=O)(=O)N3CCOCC3)cc2OC)nc2[nH]cc(C(F)(F)F)c12 [Example 177, N^6-(2-methoxy-4-(morpholinosulfonyl)phenyl)-N^4-methyl-3-(trifluoromethyl)-1H-pyrrolo[2,3-b]pyridine-4,6-diamine] |
| 0.301 to 1 | 0.301 to 1 | 0.301 to 1 | 0.301 to 1 | COc1cc(S(=O)(=O)N2CCC(N3CCOCC3)CC2)ccc1Nc1cc(NC2CCCCC2)c2c(C(F)(F)F)c[nH]c2n1 [Example 183, N^4-cyclohexyl-N^6-(2-methoxy-4-((4-morpholinopiperidin-1-yl)sulfonyl)phenyl)-3-(trifluoromethyl)-1H-pyrrolo[2,3-b]pyridine-4,6-diamine] |

— patent US12240844B2 (Voronoi, Inc., priority 2019, dated 2025)
